Experimental data taken from article PMC9896555, “Cyclic Acetals as Novel Long-Lasting Mosquito Repellents” (Journal of Agricultural and Food Chemistry, 2023).
Several values for one entry are separate records, joined by “and”; a condition that tells them apart may be missing. Identical values can stand only once. Entries after “also recorded” stand apart in the source; their conditions may differ. Like-named read-outs stand apart in the source and are kept apart here.

Assays:
Aedes albopictus [1] = test: Effective dose / protection efficacy, human-bait technique; assay type: in vivo; conditions: for pest or weed control at 0.081 µg/cm2, 0.081 µg/cm2 / pest or weed control at 0.17 µg/cm2, 0.17 µg/cm2 / pest or weed control at 0.33 µg/cm2, 0.33 µg/cm2 / pest or weed control at 0.5 µg/cm2, 0.5 µg/cm2 / pest or weed control at 0.83 µg/cm2, 0.83 µg/cm2 / pest or weed control at 1.7 µg/cm2, 1.7 µg/cm2 / pest or weed control at 8.3 µg/cm2, 8.3 µg/cm2 / pest or weed control at 16.7 µg/cm2, 16.7 µg/cm2 / pest or weed control at 83.3 µg/cm2, 83.3 µg/cm2: Aedes albopictus, topical, read-out: Protection efficacy PE%; for Protection efficacy (dose to obtain complete protection (100%) from bite attempts): applied on skin of volunteers, 3 min exposure
Experimental: The repellence of DEET, Icaridin (both supplied by Istituto Biochimico VEBI s.r.l.), acetals, and the synthesized hydroxyacetals was evaluated againstAedes albopictususing the human-bait technique (to simulate the condition of human skin on which repellents will be applied).[22]A. albopictuswas reared and tested at 26 ± 2 °C, ≥60 ± 10% relative humidity (RH), and at 14:10 h light/dark photoperiod, within Plexiglas cylindrical laboratory cages (35 cm diameter, 60 cm length) with one end closed by a net. During the tests, cages contained ≈150 nulliparous, 4–7 day-old, nonblood-fed females. For each compound to be tested, up to six volunteers participated in the trial.
The study was approved by the Regional Ethics Committee for Clinical Trials of Tuscany Region with the registered number 20383. Volunteers agreed to take part in the experiments following informed consent; only volunteers non-allergic to mosquito bites participated in the trials. On the day of the bioassay, they had no contact with lotions, perfumes, oils, or perfumed soaps. They wore latex surgical gloves, in which a dorsal square area of 30 cm^2 was cut open. Mosquito-exposed skin was treated with 50 μL of ethanol, as the negative hand control. The other hand was treated with 50 μL of the tested compounds in ethanol solution (dosages corresponding to 0.081, 0.17, 0.33, 0.5, 0.83, 1.7, 8.3, 16.7, and 83.3 μg/cm^2). Both hands were presented in the same test cage. The number of probing mosquitoes in a 3 min exposure period was recorded. During each test, the control and the treated hand were presented interchanged to verify the mosquitoes’ readiness to bite. Trials were considered valid only if at least 30 mosquitoes performed probing behavior on the control hand before each repellent dosage was tested. The protection efficacy (PE %) obtained from all replicates was calculated, according to the WHO guidelines[31] using this formula [drawing 1]
To evaluate the protection efficacy, volunteers applied increasing doses of the compounds to the skin on the back of their hands (30 cm^2, while the rest was covered with a rubber glove) and counted the number of mosquitoes attempting to bite; the solvent only was used on the control hand. The protection (percentage of repelled mosquitoes) was calculated as reported in the Material and Methods section.

Aedes albopictus [2] = test: Protection time at 0.17 mg/cm2, human-bait technique; assay type: in vivo; conditions: for pest or weed control at 0.17 mg/cm2, 0.17 mg/cm2: Aedes albopictus, topical, read-out: Protection time PE%; for Average PT >95% (% coefficient of variation) / Estimated 100% PT (complete protection time, mean±SE): at the dose of 0.17mg/cm2; for Estimated 100% PT (complete protection time, mean±SE): Kaplan–Meier estimate; for Protection time (95% protection): dose of 0.17 mg/cm^2, tests ended after 8 h
Experimental: To evaluate the protection time of derivatives, the PE % was measured with 100 μL of a 5% ethanol solution, corresponding to 0.17 mg/cm^2 of exposed skin, under the same laboratory conditions. Mosquito-exposed skin was treated with 100 μL of ethanol, as the negative hand control. For each volunteer (up to 8), the test was performed every hour, up to 8 h from the application. The protection time of DEET and Icaridin was measured under the same conditions. Since these trials were run in parallel with those aimed to profile the cytotoxicity of the compounds (paragraph 2.6), we interrupted the experiments for those compounds showing to have higher cytotoxicity than Icaridin and DEET as soon as the results were available. For this reason, the number of volunteers differs among the compounds.
The average time until protection which was higher than 95% protection time was considered for each compound. Moreover, for the compounds tested on at least three volunteers, the complete (100%) protection time was also estimated (SPSS 28.01.0) using the Kaplan–Meier survivor function procedure.[22]

HaCaT cells = test: Cytotoxicity on human keratinocytes (MTS); assay type: cell-based; conditions: 82 μg/mL, 24 h
Experimental: HaCaT cells were cultured in 5% CO2 at 37 °C in Dulbecco’s modified Eagle’s medium (DMEM), supplemented with 10% fetal bovine serum (FBS), 1% L-glutamine ([…]), and 1% penicillin–streptomycin (Thermo Fisher Scientific, Rodano, Milan, Italy). […] Experiments were performed in triplicate.

Caco-2 monolayer = test: Transwell permeation test; assay type: in vitro ADME; conditions: 82 μg/mL apical, 3 h
Experimental: To evaluate the possibility of absorption after topical application, we tested the permeation through a Caco-2 monolayer for those compounds best performing in terms of protection time and cytotoxicity. The colorectal adenocarcinoma cell line Caco-2 was purchased from ATCC and cultured in DMEM with 20% FBS, L-glutamine (2 mM), and 1% penicillin–streptomycin 100 U/mL (Thermo Fisher Scientific, Rodano, Milan, Italy) in 5% CO2 at 37 °C.
For the permeation studies, Caco-2 cells, a model of epithelial cells, were seeded into 12-well PET Transwell plates (1.13 cm^2 growth surface area and pore size 0.4 μm, Greiner Bio-One, Milan, Italy) at a density of 2 × 10^5 cells/cm^2 and grown for 21 days to form a confluent monolayer. The integrity of the cellular barrier was then assessed using Lucifer Yellow (LY) permeability test, before the experiments.[33]
After washing, the monolayers were preincubated for 20 min at 37 °C with 0.5 and 1.5 mL of the incubation medium, HBSS/HEPES 25 mM in the apical and basolateral sides, respectively. […] At the end of the experiment, the layer integrity was re-evaluated. […]
One hundred microliters of the collected media was extracted in 100 μL of heptane by vortexing the vial for 2 min; 70 μL of this solution was recovered; and 1 μL was injected in a 7820 GC system-5977B MSD system and analyzed under the same conditions reported in paragraph 2.2. […]

RAW 264.7 = test: Immunogenicity on murine macrophages (nitric oxide release); assay type: cell-based; conditions: RAW264.7, 82 μg/mL, 6 h
Experimental: Cells were cultured in DMEM, with 10% FBS, 1% L-glutamine (2 mM), and 1% penicillin–streptomycin 100 U/mL at 37 °C in an atmosphere containing 5% CO2. RAW264.7 were seeded (1 × 10^5 cells/well) and exposed to five derivatives or Icaridin, at 82 μg/mL or to LPS (1 μg/mL) as a positive control, for 3 and 6 h. After that, nitric oxide release was determined in the culture media as previously described.[32] Experiments were performed in triplicate.

| SMILES | pest or weed control at 0.081 µg/cm2, 0.081 µg/cm2 (Aedes albopictus [1]) [%] | pest or weed control at 0.17 µg/cm2, 0.17 µg/cm2 (Aedes albopictus [1]) [%] | pest or weed control at 0.33 µg/cm2, 0.33 µg/cm2 (Aedes albopictus [1]) [%] | pest or weed control at 0.5 µg/cm2, 0.5 µg/cm2 (Aedes albopictus [1]) [%] | pest or weed control at 0.83 µg/cm2, 0.83 µg/cm2 (Aedes albopictus [1]) [%] | pest or weed control at 1.7 µg/cm2, 1.7 µg/cm2 (Aedes albopictus [1]) [%] | pest or weed control at 8.3 µg/cm2, 8.3 µg/cm2 (Aedes albopictus [1]) [%] | pest or weed control at 16.7 µg/cm2, 16.7 µg/cm2 (Aedes albopictus [1]) [%] | pest or weed control at 83.3 µg/cm2, 83.3 µg/cm2 (Aedes albopictus [1]) [%] | Protection efficacy (dose to obtain complete protection (100%) from bite attempts) (Aedes albopictus [1]) [μg/cm^2] | pest or weed control at 0.17 mg/cm2, 0.17 mg/cm2 (Aedes albopictus [2]; 0.17mg/cm2, 1 h) [%] | pest or weed control at 0.17 mg/cm2, 0.17 mg/cm2 (Aedes albopictus [2]; 0.17mg/cm2, 2 h) [%] | pest or weed control at 0.17 mg/cm2, 0.17 mg/cm2 (Aedes albopictus [2]; 0.17mg/cm2, 3 h) [%] | pest or weed control at 0.17 mg/cm2, 0.17 mg/cm2 (Aedes albopictus [2]; 0.17mg/cm2, 4 h) [%] | pest or weed control at 0.17 mg/cm2, 0.17 mg/cm2 (Aedes albopictus [2]; 0.17mg/cm2, 5 h) [%] | pest or weed control at 0.17 mg/cm2, 0.17 mg/cm2 (Aedes albopictus [2]; 0.17mg/cm2, 6 h) [%] | pest or weed control at 0.17 mg/cm2, 0.17 mg/cm2 (Aedes albopictus [2]; 0.17mg/cm2, 7 h) [%] | pest or weed control at 0.17 mg/cm2, 0.17 mg/cm2 (Aedes albopictus [2]; 0.17mg/cm2, 8 h) [%] | Average PT >95% (% coefficient of variation) (Aedes albopictus [2]) | Estimated 100% PT (complete protection time, mean±SE) (Aedes albopictus [2]) [min] | also measured |
| --- | --- | --- | --- | --- | --- | --- | --- | --- | --- | --- | --- | --- | --- | --- | --- | --- | --- | --- | --- | --- | --- |
| CC(C)CC1(CC(C)C)OCC(C)(CO)CO1 [17b] | 8.33 | 27.8 | 50.8 | 44.4 | 58.1 | 94.8 | 100 | 100 | 100 | 8.3 | 100 | 98.7 | 99.1 | 100 | 96.8 | 93.6 | 95.6 | 96.5 | 480 (5.0) min | 300 ± 94 | Protection time (95% protection) (Aedes albopictus [2]): 8 h; survival of keratocytes (HaCaT cells): > 88% and 92%; permeability value lower compared to Icaridin (Caco-2 monolayer): 17%; immunogenicity (nitric oxide release / nitrite production), in words (RAW 264.7): did not exhibit immunogenicity; also recorded: indistinguishable from the negative control |
| CC1(CO)COC2(CCCCC2)OC1 [6b] | 48.4 | 62.7 | 77 | 64.9 | 100 | 100 | 100 | 100 | 100 | 0.83 | 100 | 99.1 | 100 | 100 | 99.4 | 90.8 | 97.3 | 95.1 | 480 (3.3) min | 375 ± 89 | 100% PE (Aedes albopictus [1]; Table S1): 0.83 µg/cm2; Protection time (95% protection) (Aedes albopictus [2]): 8 h; survival of keratocytes (HaCaT cells): > 88% |
